Measurements: US9018258B2, “Substituted 1-benzylcycloalkylcarboxylic acids and the use thereof” (Bayer Intellectual Property GmbH, priority 2010, dated 2015)

biological target: T1, sGC (Rattus norvegicus, UniProt P20595); assay: Action at a recombinant guanylate cyclase reporter cell line (CHO reporter cell); type: cell-based; conditions: CHO reporter cell in vitro
T1 construct: expressed in transfected cells; host or cells: CHO reporter cell
Experimental: The cellular action of the compounds according to the invention is determined at a recombinant guanylate cyclase reporter cell line, as described in F. Wunder et al., Anal. Biochem. 339, 104-112 (2005).

T1 sequence (P19686 whole entry partner): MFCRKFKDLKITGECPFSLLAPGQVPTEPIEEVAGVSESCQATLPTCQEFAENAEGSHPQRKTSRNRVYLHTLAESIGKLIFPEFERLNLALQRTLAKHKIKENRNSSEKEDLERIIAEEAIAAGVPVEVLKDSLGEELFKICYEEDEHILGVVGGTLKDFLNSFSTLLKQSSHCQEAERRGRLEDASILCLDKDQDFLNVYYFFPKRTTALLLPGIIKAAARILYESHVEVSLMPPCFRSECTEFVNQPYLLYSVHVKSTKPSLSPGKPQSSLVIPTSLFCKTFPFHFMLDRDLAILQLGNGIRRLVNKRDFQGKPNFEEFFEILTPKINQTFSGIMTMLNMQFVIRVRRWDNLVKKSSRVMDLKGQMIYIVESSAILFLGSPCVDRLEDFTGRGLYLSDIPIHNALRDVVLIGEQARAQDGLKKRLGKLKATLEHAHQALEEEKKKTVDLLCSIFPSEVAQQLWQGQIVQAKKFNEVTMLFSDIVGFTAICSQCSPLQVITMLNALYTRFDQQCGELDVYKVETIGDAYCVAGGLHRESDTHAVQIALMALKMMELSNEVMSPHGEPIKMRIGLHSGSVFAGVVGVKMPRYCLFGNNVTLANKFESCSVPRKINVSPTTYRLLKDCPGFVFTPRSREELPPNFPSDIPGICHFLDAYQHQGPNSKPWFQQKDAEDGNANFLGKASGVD
T1 sequence (P20595 whole entry): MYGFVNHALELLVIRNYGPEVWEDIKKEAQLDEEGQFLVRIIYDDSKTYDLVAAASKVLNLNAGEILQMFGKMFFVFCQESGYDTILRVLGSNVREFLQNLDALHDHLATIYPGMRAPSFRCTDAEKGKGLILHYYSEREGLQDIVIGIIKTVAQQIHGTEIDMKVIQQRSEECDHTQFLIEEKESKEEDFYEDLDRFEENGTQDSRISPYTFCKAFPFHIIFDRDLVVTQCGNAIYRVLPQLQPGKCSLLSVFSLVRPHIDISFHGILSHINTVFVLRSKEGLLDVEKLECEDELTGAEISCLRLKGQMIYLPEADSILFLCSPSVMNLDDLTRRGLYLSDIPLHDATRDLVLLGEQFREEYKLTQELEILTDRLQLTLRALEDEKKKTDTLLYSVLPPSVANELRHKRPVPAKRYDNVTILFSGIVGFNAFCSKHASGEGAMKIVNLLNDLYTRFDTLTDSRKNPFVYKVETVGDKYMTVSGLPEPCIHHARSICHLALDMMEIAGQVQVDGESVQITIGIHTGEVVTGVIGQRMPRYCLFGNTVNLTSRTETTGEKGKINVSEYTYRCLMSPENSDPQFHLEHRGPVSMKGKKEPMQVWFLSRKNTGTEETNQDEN

MEC (minimum effective concentration), sGC-activating activity in the CHO reporter cell, 5.3 nM:
O=C(Nc1cc(CC2(C(=O)O)CC2)ccc1F)C(c1ccc(Cl)cc1)C1CCCC1(F)F (racemic) [Example 65, 1-(3-{[(4-Chlorophenyl)(2,2-difluorocyclopentyl)acetyl]amino}-4-fluorobenzyl)cyclopropane-carboxylic acid]

MEC (minimum effective concentration), sGC-activating activity in the CHO reporter cell, 20 nM:
CC(C(C(=O)Nc1cccc(CC2(C(=O)O)CC2)c1)c1ccc(Cl)cc1)C(F)(F)F (single isomer, unassigned) [Example 84, 1-(3-{[2-(4-Chlorophenyl)-4,4,4-trifluoro-3-methylbutanoyl]amino}benzyl)cyclopropane-carboxylic acid]
C[C@H]([C@H](C(=O)Nc1cc(C(O)C2(C(=O)O)CC2)ccc1Cl)c1ccc(Cl)cc1)C(F)(F)F (single isomer, unassigned) [Example 104]

MEC (minimum effective concentration), sGC-activating activity in the CHO reporter cell, 60 nM:
C[C@H]([C@H](C(=O)Nc1cc(C(O)C2(C(=O)O)CC2)ccc1Cl)c1ccc(Cl)cc1)C(F)(F)F (single isomer, unassigned) [Example 103]

MEC (minimum effective concentration), sGC-activating activity in the CHO reporter cell, 0.1 nM:
CC(C)c1ccc([C@@H](C(=O)Nc2cc(CC3(C(=O)O)CC3)ccc2F)[C@@H](C)C(F)(F)F)cc1 [Example 37, 1-(4-fluoro-3-{[(2S,3R)-4,4,4-trifluoro-2-(4-isopropylphenyl)-3-methylbutanoyl]amino}-benzyl)cyclopropanecarboxylic acid]

MEC (minimum effective concentration), sGC-activating activity in the CHO reporter cell, 0.3 nM:
C[C@H]([C@H](C(=O)Nc1cc(C(OC2CC2)C2(C(=O)O)CC2)ccc1Cl)c1ccc(Cl)cc1)C(F)(F)F (single isomer, unassigned) [Example 113]
CCc1ccc([C@@H](C(=O)Nc2cc(CC3(C(=O)O)CC3)ccc2F)[C@@H](C)C(F)(F)F)cc1 [Example 25, (+)-1-(3-{[(2S,3R)-2-(4-ethylphenyl)-4,4,4-tri-fluoro-3-methylbutanoyl]amino}-4-fluorobenzyl)-cyclopropanecarboxylic acid]
C[C@H]([C@H](C(=O)Nc1cc(CC2(C(=O)O)CC2)ccc1F)c1ccc(C(C)(C)C)cc1)C(F)(F)F [Example 39, 1-(3-{[(2S,3R)-2-(4-tert-butylphenyl)-4,4,4-trifluoro-3-methylbutanoyl]amino}-4-fluorobenzyl)cyclopropanecarboxylic acid]

MEC (minimum effective concentration), sGC-activating activity in the CHO reporter cell, 100 nM:
O=C(Nc1cccc(CC2(C(=O)O)CC2)c1)C(c1ccc(C=C(F)F)cc1)C1CCCC1 (racemic) [Example 12, (+/−)-1-[3-({cyclopentyl[4-(2,2-difluorovinyl)-phenyl]acetyl}amino)benzyl]cyclopropane-carboxylic acid]
O=C(Nc1cccc(CC2(C(=O)O)CC2)c1)C(c1ccc(CC(F)F)cc1)C1CCCC1 (racemic) [Example 14, (+/−)-1-[3-({cyclopentyl[4-(2,2-difluoroethyl)-phenyl]acetyl}amino)benzyl]cyclopropane-carboxylic acid]
C[C@H]([C@H](C(=O)Nc1cccc(CC2(C(=O)O)CC2)c1Cl)c1ccc(Cl)cc1)C(F)(F)F [Example 27, (+)-1-(2-chloro-3-{[(2S,3R)-2-(4-chlorophenyl)-4,4,4-trifluoro-3-methylbutanoyl]amino}benzyl)-cyclopropanecarboxylic acid]

MEC (minimum effective concentration), sGC-activating activity in the CHO reporter cell, 3 nM:
O=C(Nc1cc(CC2(C(=O)O)CC2)ccc1F)C(c1ccc(Cl)cc1)C1CCCC1 (racemic) [Example 8, (+/−)-1-(3-{[(4-chlorophenyl)(cyclopentyl)acetyl]-amino}-4-fluorobenzyl)cyclopropanecarboxylic acid]
O=C(Nc1cc(CC2(C(=O)O)CC2)ccc1F)C(c1ccc(Cl)cc1)C1CCC(F)(F)C1 (single isomer, unassigned) [Example 78, 1-(3-{[(4-Chlorophenyl)(3,3-difluorocyclopentyl)acetyl]amino}-4-fluorobenzyl)cyclopropanecarboxylic acid]
CC(C(C(=O)Nc1cccc(CC2(C(=O)O)CC2)c1)c1ccc(C(F)(F)F)cc1)C(F)(F)F (single isomer, unassigned) [Example 80, 1-[3-({4,4,4-Trifluoro-3-methyl-2-[4-(trifluoromethyl)phenyl]butanoyl}amino)benzyl]cyclo-propanecarboxylic acid]
C[C@H]([C@H](C(=O)Nc1cc(C(OC2CC2)C2(C(=O)O)CC2)ccc1Cl)c1ccc(Cl)cc1)C(F)(F)F (single isomer, unassigned) [Example 114]
O=C(Nc1cc(CC2(C(=O)O)CC2)ccc1F)[C@H](c1ccc(Cl)cc1)C1CCCC1(F)F (single isomer, unassigned; (+)) [Example 67]
C[C@H]([C@H](C(=O)Nc1ccc(Cl)c(CC2(C(=O)O)CC2)c1F)c1ccc(Cl)cc1)C(F)(F)F [Example 28, 1-(6-chloro-3-{[(2S,3R)-2-(4-chlorophenyl)-4,4,4-trifluoro-3-methylbutanoyl]amino}-2-fluorobenzyl)cyclopropanecarboxylic acid]

MEC (minimum effective concentration), sGC-activating activity in the CHO reporter cell, 30 nM:
O=C(Nc1cccc(CC2(C(=O)O)CC2)c1F)C(c1ccc(Cl)cc1)C1CCCC1 (racemic) [Example 6, (+/−)-1-(3-{[(4-chlorophenyl)(cyclopentyl)acetyl]-amino}-2-fluorobenzyl)cyclopropanecarboxylic acid]
C=Cc1ccc(C(C(=O)Nc2cccc(CC3(C(=O)O)CC3)c2)C2CCCC2)cc1 (racemic) [Example 13, (+/−)-1-(3-{[cyclopentyl(4-vinylphenyl)acetyl]-amino}benzyl)cyclopropanecarboxylic acid]
N#Cc1ccc(C(C(=O)Nc2cc(CC3(C(=O)O)CC3)ccc2F)C2CCCC2)cc1 (racemic) [Example 15, (+/−)-1-(3-{[(4-cyanophenyl)(cyclopentyl)acetyl]-amino}-4-fluorobenzyl)cyclopropanecarboxylic acid]
Cc1cc(C(C(=O)Nc2cccc(CC3(C(=O)O)CC3)c2)C(C)C(F)(F)F)ccc1Cl (stereo not drawn) [Example 49, 1-(3-{[2-(4-chloro-3-methylphenyl)-4,4,4-trifluoro-3-methylbutanoyl]amino}benzyl)-cyclopropanecarboxylic acid]

MEC (minimum effective concentration), sGC-activating activity in the CHO reporter cell, 1 nM:
CCc1ccc(C(C(=O)Nc2cc(CC3(C(=O)O)CC3)ccc2F)C(C)C(F)(F)F)cc1 (racemic) [Example 9, (+/−)-1-(3-{[2-(4-ethylphenyl)-4,4,4-trifluoro-3-methylbutanoyl]amino}-4-fluorobenzyl)-cyclopropanecarboxylic acid]
O=C(Nc1cc(CC2(C(=O)O)CC2)ccc1F)C(c1ccc(Cl)cc1F)C1CCCC1 (racemic) [Example 11, (+/−)-1-(3-{[(4-chloro-2-fluorophenyl)(cyclo-pentyl)acetyl]amino}-4-fluorobenzyl)-cyclopropanecarboxylic acid]
C[C@H]([C@H](C(=O)Nc1cc(CC2(C(=O)O)CC2)ccc1Cl)c1ccc(C(F)(F)F)cc1)C(F)(F)F [Example 41, 1-[4-chloro-3-({(2S,3R)-4,4,4-trifluoro-3-methyl-2-[4-(trifluoromethyl)phenyl]butanoyl}amino)-benzyl]cyclopropanecarboxylic acid]
CC(C(C(=O)Nc1cc(CC2(C(=O)O)CC2)ccc1Cl)c1ccc(CC(F)(F)F)cc1)C(F)(F)F (stereo not drawn) [Example 46, 1-[4-chloro-3-({4,4,4-trifluoro-3-methyl-2-[4-(2,2,2-trifluoroethyl)phenyl]butanoyl}amino)-benzyl]cyclopropanecarboxylic acid]

MEC (minimum effective concentration), sGC-activating activity in the CHO reporter cell, 10 nM:
O=C(Nc1cc(CC2(C(=O)O)CC2)ccc1F)C(c1ccc([N+](=O)[O-])cc1)C1CCCC1 (racemic) [Example 16, (+/−)-1-(3-{[(4-nitrophenyl)(cyclopentyl)acetyl]-amino}-4-fluorobenzyl)cyclopropanecarboxylic acid]
O=C(Nc1cccc(CC2(C(=O)O)CC2)c1)C(c1ccc(C(F)(F)F)cc1)C1CCCC1 (racemic) [Example 53, (+/−)-1-[3-({Cyclopentyl[4-(trifluoromethyl)phenyl]acetyl}amino)benzyl]cyclopropanecarboxylic acid]
C[C@H]([C@H](C(=O)Nc1cc(CC2(C(=O)O)CC2)ccc1F)c1ccc(F)cc1)C(F)(F)F [Example 22, (+)-1-(4-fluoro-3-{[(2S,3R)-4,4,4-trifluoro-2-(4-fluorophenyl)-3-methylbutanoyl]amino}-benzyl)cyclopropanecarboxylic acid]
O=C(Nc1cc(CC2(C(=O)O)CC2)ccc1F)C(c1ccc(Cl)cc1)C1CCC(F)(F)C1 (stereo not drawn) [Example 34, 1-(3-{[(4-chlorophenyl)(3,3-difluorocyclopentyl)-acetyl]amino}-4-fluorobenzyl)cyclopropane-carboxylic acid]
O=C(Nc1cc(CC2(C(=O)O)CC2)ccc1Cl)C(c1ccc(Cl)cc1)C1CCC(F)(F)C1 (stereo not drawn) [Example 35, 1-(3-{[(4-chlorophenyl)(3,3-difluorocyclopentyl)-acetyl]amino}-4-chlorobenzyl)cyclopropane-carboxylic acid]
